Source: patent US8217050B2, “Adenine derivative as inhibitors of HSP90 for the treatment of cancer” (Chroma Therapeutics Limited, priority 2006, dated 2012)

Legend:
[1] = tested on: HCT 116 cell line; assay: Cell inhibition assay (WST-1 cell proliferation, 120 hrs); assay type: cell-based; conditions: Homo sapiens, HCT-116, 120 hrs, read-out: Inhibitor Activity vs HCT 116 cell line
Protocol: Cells were seeded in 96W tissue culture plates (1 well=30 mm^2) at a density of 500 cells per well in 50 μl of the appropriate culture medium (see below). 24 hrs later 50 μl of the compound prepared in the same medium was added as 4 fold dilutions to give final concentrations in the range 0.15 nM-2500 nM (n=6 for each concentration). The plates were then incubated at 37° C., 5% CO2 for 120 hrs. Cell proliferation was assessed using WST-1 (a metabolic indicator dye, Roche Cat no. 1 644 807) according to the manufacturers instructions. The results were calculated as percentage of vehicle response and IC50 values represent the concentration of compound that inhibited the vehicle response by 50%. HCT-116 Culture Medium—Dulbeccos MEM (Sigma D6546) plus 10% heat inactivated fetal calf serum (Hyclone SH30071 Thermo Fischer Scientific) containing 2 mM Glutamine (Sigma cat no G-7513) and 50 U/ml Penicillin and Streptomycin Sulphate (Sigma Cat no P-0781).
Data were expressed as a percentage inhibition of the control, measured in the absence of inhibitor, as follows: % inhibition=100−((S^i/S^o)×100) where S^i is the signal in the presence of inhibitor and S0 is the signal in the presence of DMSO.
IC50 values were determined by non-linear regression analysis, after fitting the results of eight data points to the equation for sigmoidal dose response with variable slope (% activity against log concentration of compound), using Graphpad Prism® software.

[2] = target: T1, human recombinant his-tagged HSP90α (Homo sapiens, UniProt P07900); assay: Hsp90 HTRF assay (competition with biotinylated GM for binding to HSP90); conditions: bio-GM displacement, 20 h incubation at room temperature, read-out: Inhibitor Activity vs Hsp90
T1 construct: purchased Prospec Technogene #HSP90
From the text: An HTRF (homogeneous time resolved fluorescence assay) assay was used to measure the interaction of the compounds with HSP90.
The assay measures binding of biotinylated GM (bio-GM; Biomol, #EI-341, lot: A9199a) to human recombinant his-tagged HSP90α (HSP90; Prospec Technogene, #HSP90, lot: 260HSP9001). A signal is generated by fluorescence resonance energy transfer from an Europium-cryptate labeled anti-his antibody (anti-6HIS-Cryptate; Cisbio International, #61HISKLA, lot: 33V) via the HSP90-GM-biotin complex to a fluorescence acceptor (allophycocyanin) linked to streptavidin (SA-XL; Cisbio International, #610SAXLB, lot: 089).
Unlabeled GM or compounds compete with the bio-GM for binding to HSP90 resulting in reduced fluorescence energy transfer/assay signal.
For the assay a preformed (1 h incubation) complex of HSP90 with the anti-his-K is added to the compound solution in a 384 well microplate (Corning, #3710) and incubated for 15 min. A preformed (1 h incubation) complex of bio-GM with the SA-XL was added to the wells and incubated for 20 h. All incubations were performed at room temperature. The final assay volume was 50 μl/well. The final concentrations in the assay were: 50 mM Hepes pH 7.3, 50 mM NaCl, 100 mM KF, 1 mM EDTA, 1 mM DTT, 0.1% Triton-X-100, 1 nM anti-his-K, 40 nM HSP90, 40 nM SA-XL, 40 nM bio-GM. Test compounds were dissolved in DMSO, prediluted in assay buffer and tested at a final concentration between 5000 nM and 0.3 nM. The resulting DMSO concentration was 0.5% and included in all controls. High controls were without test compounds, low controls without test compounds, without HSP90 and without bio-GM. As a reference inhibitor unlabeled GM was used in the same concentrations as the test compounds.
Inhibition was calculated compared to the assay controls using an Excel spreadsheet (Microsoft). IC50 values were calculated by non-linear least squares fitting to the standard dose-response model using GraphPad Prism (GraphPad Software Inc).

Structure (SMILES) | IC50 [1] [µM] | IC50 [2] [µM]
Nc1ncnc2c1nc(Sc1cc3c(cc1I)OCO3)n2C[C@H](N)C(=O)OC1CCCC1 [Example 6, Cyclopentyl 3-{6-amino-8-[(6-iodo-1,3-benzodioxol-5-yl)thio]-9H-purin-9-yl}-L-alaninate] |  | < 1
Nc1ncnc2c1nc(Sc1ccc3c(c1)OCO3)n2-c1ccc(C[C@H](N)C(=O)O)cc1 [Example 13, 4-{6-amino-8-[(1,3-benzodioxol-5-yl)thio]-9H-purin-9-yl}-L-phenylalanine] |  | 1 to 10
Nc1ncnc2c1nc(Sc1cc3c(cc1Br)OCO3)n2-c1ccc(C[C@H](N)C(=O)OC2CCCC2)cc1 [Example 8, Cyclopentyl 4-{6-amino-8-[(6-bromo-1,3-benzodioxol-5-yl)thio]-9H-purin-9-yl}-L-phenylalaninate] |  | 1 to 10
Nc1ncnc2c1nc(Sc1ccc3c(c1)OCO3)n2-c1ccc(C[C@H](N)C(=O)OC2CCCC2)cc1 [Example 7, Cyclopentyl 4-{6-amino-8-[(1,3-benzodioxol-5-yl)thio]-9H-purin-9-yl}-L-phenylalaninate] |  | 1 to 10
CC(C)(C)OC(=O)[C@@H](N)CCCn1c(Sc2cc3c(cc2I)OCO3)nc2c(N)ncnc21 [Example 5, (S)-tert-Butyl 2-amino-5-(6-amino-8-(6-iodobenzo[d][1,3]dioxol-5-ylthio)-9H-purin-9-yl)pentanoate] | 1 to 10 | < 1
Nc1ncnc2c1nc(Sc1cc3c(cc1Br)OCO3)n2-c1ccc(C[C@H](N)C(=O)O)cc1 [Example 14, 4-{6-amino-8-[(6-bromo-1,3-benzodioxol-5-yl)thio]-9H-purin-9-yl}-L-phenyl alanine] |  | < 1
Nc1ncnc2c1nc(Sc1cc3c(cc1I)OCO3)n2CCC[C@H](N)C(=O)OC1CCCC1 [Example 1, (S)-Cyclopentyl 2-amino-5-(6-amino-8-(6-iodobenzo[d][1,3]dioxol-5-ylthio)-9H-purin-9-yl)pentanoate] | < 1 | < 1
Nc1ncnc2c1nc(Sc1cc3c(cc1I)OCO3)n2CCC[C@@H](N)C(=O)OC1CCCC1 [Example 3, (R)-Cyclopentyl 2-amino-5-(6-amino-8-(6-iodobenzo[d][1,3]dioxol-5-ylthio)-9H-purin-9-yl)pentanoate] | < 1 | < 1

The next lines start with the values.

IC50 [1] [µM] | IC50 [2] [µM] | Structure (SMILES)
< 1 | < 1 | Nc1ncnc2c1nc(Sc1cc3c(cc1I)OCO3)n2CC[C@H](N)C(=O)OC1CCCC1 [Example 2, (S)-cyclopentyl 2-amino-4-(6-amino-8-(6-iodobenzo[d][1,3]dioxol-5-ylthio)-9H-purin-9-yl)butanoate]
 | < 1 | Nc1ncnc2c1nc(Sc1cc3c(cc1I)OCO3)n2CC[C@H](N)C(=O)O [Example 10, (S)-2-amino-4-(6-amino-8-(6-iodobenzo[d][1,3]dioxol-5-ylthio)-9H-purin-9-yl)butanoic acid]
< 1 | < 1 | Nc1ncnc2c1nc(Sc1cc3c(cc1I)OCO3)n2CC[C@@H](N)C(=O)OC1CCCC1 [Example 4, (R)-cyclopentyl 2-amino-4-(6-amino-8-(6-iodobenzo[d][1,3]dioxol-5-ylthio)-9H-purin-9-yl)butanoate]
 | < 1 | Nc1ncnc2c1nc(Sc1cc3c(cc1I)OCO3)n2CCC[C@H](N)C(=O)O [Example 9, (S)-2-amino-5-(6-amino-8-(6-iodobenzo[d][1,3]dioxol-5-ylthio)-9H-purin-9-yl)pentanoic acid]
